This note sets out measurements from ChEMBL document CHEMBL1155168, “Bound to shock: protection from lethal endotoxemic shock by a novel, nontoxic, alkylpolyamine lipopolysaccharide sequestrant” (Antimicrob Agents Chemother, 2007).

Series [1] is described as follows: Ex vivo inhibition of Escherichia coli lipopolysaccharide-stimulated IL6 production in human whole blood by multiplexed flow cytometric bead array system. The class given is tissue-based. (In general: A flow cytometer gives signals particle by particle.)
Series [2] can be described thus: Inhibition of Salmonella enterica serovar Abortus equi lipopolysaccharide-stimulated NF-kappaB induction in HEK-Blue cells assessed as expression of secreted alkaline phosphatase by seAP assay. Format: cell-based.
The nature of series [3]: Inhibition of Vibrio cholerae lipopolysaccharide-stimulated NF-kappaB induction in HEK-Blue cells assessed as expression of secreted alkaline phosphatase by seAP assay. Format: cell-based.
A short description of series [4]: Ex vivo inhibition of Escherichia coli lipopolysaccharide-stimulated TNFalpha production in human whole blood by multiplexed flow cytometric bead array system. Format: tissue-based.
A short description of series [5]: Inhibition of Escherichia coli O111:B4 lipopolysaccharide-stimulated NF-kappaB induction in HEK-Blue cells assessed as expression of secreted alkaline phosphatase by seAP assay. The class given is cell-based.
A further series has as its system J774.A1. The series is described as follows: Inhibition of LPS-stimulated nitric oxide production in mouse J774A.1 cells after 16 hrs. The class given is functional, cell-based.
Series [6] in a line: Inhibition of LPS-stimulated NF-kappaB induction in HEK-Blue cells assessed as expression of secreted alkaline phosphatase by seAP assay. The class given is cell-based.
Series [7] can be described thus: Inhibition of Escherichia coli 055:B5 lipopolysaccharide-stimulated NF-kappaB induction in HEK-Blue cells assessed as expression of secreted alkaline phosphatase by seAP assay. The class given is cell-based.
Series [8] in a line: Ex vivo inhibition of Escherichia coli lipopolysaccharide-stimulated IL8 production in human whole blood by multiplexed flow cytometric bead array system. Format: tissue-based.
A short description of series [9]: Inhibition of Pseudomonas aeruginosa lipopolysaccharide-stimulated NF-kappaB induction in HEK-Blue cells assessed as expression of secreted alkaline phosphatase by seAP assay. Format: cell-based.
Series [10] concerns HEK-Blue. The series is described as follows: Inhibition of TNF-alpha-stimulated NF-kappaB induction in HEK-Blue cells assessed as expression of secreted alkaline phosphatase by seAP assay. Format: functional, cell-based. To be noted: Homo sapiens.
In series [11] the test system is Mus musculus. In words: Increase in survivality of ip dosed D-galactosamine-primed mouse model of LPS-induced lethal septic shock administered as precomplex with LPS. Format: functional, organism-based.
Series [12] deals with Mus musculus. In words: Increase in survivality of sc dosed D-galactosamine-primed CF1 mouse model of LPS-induced lethal septic shock administered 1 hr prior to LPS challenge. Format: functional, organism-based.
The next series deals with Blood. In words: Ex vivo inhibition of TNF-alpha-stimulated T180/Y182 dual phosphorylation of p38 MAPK in human whole blood by flow cytometry. Format: functional, tissue-based.
In series [13] the test system is Mus musculus. In words: Inhibition of LPS-induced cytokines levels in D-galactosamine-primed mouse model of at 4 mg/kg, sc. Format: functional, organism-based. The arrangement: dose 4 mg/kg.
For series [14], the system named is Mus musculus. The series is described as follows: Increase in survivality of sc dosed D-galactosamine-primed mouse model of TNF-alpha-induced lethal septic shock. Format: functional, organism-based.
In series [15] the test system is Mus musculus. In words: Toxicity in mouse at 40 mg/kg/day, sc after 5 days. The arrangement: route subcutaneous. The class given is organism-based. The settings on record: in vivo, 120 h.
Series [16] concerns HEK-Blue. In words: Inhibition of phorbol esters-stimulated NF-kappaB induction in HEK-Blue cells assessed as expression of secreted alkaline phosphatase by seAP assay. The class given is functional, cell-based. To be noted: Homo sapiens.
Series [17] concerns Mus musculus. In words: Toxicity in mouse in mouse assessed as polyamine level in plasma at 40 mg/kg/day, sc for 5 days relative to control. The class given is organism-based. The arrangement: route subcutaneous. The settings on record: in vivo, 120 h.
Series [18] deals with HEK-Blue. In words: Inhibition of ionomycin-stimulated NF-kappaB induction in HEK-Blue cells assessed as expression of secreted alkaline phosphatase by seAP assay. Format: functional, cell-based. To be noted: Homo sapiens.
Series [19] has as its system HEK-Blue. The series is described as follows: Inhibition of IL-1-beta-stimulated NF-kappaB induction in HEK-Blue cells assessed as expression of secreted alkaline phosphatase by seAP assay. To be noted: Homo sapiens. Format: functional, cell-based.
Series [20] has as its system Escherichia coli. The series is described as follows: Displacement of BODIPY-cadaverine from Escherichia coli O111:B4 lipopolysaccharide.
For series [21], the system named is Escherichia coli. The series is described as follows: Ex vivo inhibition of Escherichia coli lipopolysaccharide-stimulated T180/Y182 dual phosphorylation of p38 MAPK in human whole blood by flow cytometry. The class given is tissue-based.

Activity calls are given as the source filed them. The calls are words filed in the database; no cut-off is given here.

As a reminder, the IC50 is the concentration that inhibits the measured activity by half.

Take POLYMYXIN B [listing 1 of 2 here]: the IC50 stood at 11000 nM in [1]; 562 nM in series [2] (hek-blue); 30 nM in [3] (hek-blue); 11000 nM in series [4]; 30 nM in [5] (hek-blue); 27 nM with J774.A1 (j774.a1). In addition, the IC50 in [6] (hek-blue) stood at 32 nM; in series [7] (hek-blue), 30 nM; in series [8] it was 11000 nM; in series [9] (hek-blue), 30 nM.
As to `CCCCCCCCCCCCCCCCNCCCNCCCNCCCCNCCCN.O=C(O)C(F)(F)F`, the IC50 in [1] (Escherichia coli, Blood) came to 3000 nM; in series [2] (Salmonella enterica, HEK-Blue), 82 nM; in series [3] (Vibrio cholerae, HEK-Blue), 30 nM; in series [4] (Escherichia coli, Blood) it was 3000 nM; in series [5] (Escherichia coli, HEK-Blue) it was 30 nM; in the series on J774.A1 (Mus musculus, J774.A1, 16 h), 21 nM. The IC50 was found to be 32 nM in series [6] (HEK-Blue); 30 nM in series [7] (Escherichia coli, HEK-Blue); 3000 nM in series [8] (Escherichia coli, Blood); 30 nM in series [9] (Pseudomonas aeruginosa, HEK-Blue). The result in the series with HEK-Blue [10], with Blood, with Mus musculus [14], in the series on HEK-Blue [16], in the series with HEK-Blue [18] and with HEK-Blue [19] was inactive. The Activity result in the series on Mus musculus [11] was “Dose-dependent effect”; in the series with Mus musculus [12], “Dose-dependent effect”; with Mus musculus [15], “Non-toxic”; in the series with Mus musculus [17], “Non-toxic”. For the same compound, in the series with Mus musculus [13], the outcome was Active. In the series on Escherichia coli [20], this compound returned an ED50 of 1200 nM.
For the compound POLYMYXIN B [listing 2 of 2 here], the result in the series on HEK-Blue [10], in the series with Blood, in the series on HEK-Blue [16], with HEK-Blue [18] and in the series on HEK-Blue [19] was inactive. Further, the Activity result in the series with Mus musculus [11], with Mus musculus [12] and in the series on Escherichia coli [21] was “Dose-dependent effect” throughout. In addition, the ED50 in the series with Escherichia coli [20] was determined as 1310 nM.
